pEC50: −log10 of the molar value. Marks after values point to notes of the source that are not given here.
Key:
[1] = system: ovariectomized (OVX) rats; test: Four day dosing regimen, post-menopausal rat model: wet uterine weight; format: in vivo, Sprague Dawley rats; details: for Uterine Weight (% inc. OVX): OVX rats, oral, daily for 4 days
Experimental: (§1) Animals were dosed daily for 4 days. […] A blood sample was collected by cardiac puncture.

[2] = system: uterine eosinophil peroxidase activity; test: Uterine eosinophil peroxidase (EPO) assay, four day dosing; format: in vivo, Sprague Dawley rats; details: for Uterine EPO (Vmax): OVX rats, oral, daily for 4 days
Experimental: as §1

[3] = system: ovariectomized (OVX) rats; test: Serum cholesterol analysis, four day dosing; format: in vivo, Sprague Dawley rats
Experimental: as §1
Blood samples were allowed to clot at room temperature for 2 hours, and serum was obtained following centrifugation for 10 minutes at 3000 rpm. Serum cholesterol was determined using a Boehringer Mannheim Diagnostics high performance cholesterol assay. Briefly the cholesterol was oxidized to cholest-4-en-3-one and hydrogen peroxide. The hydrogen peroxide was then reacted with phenol and 4-aminophenazone in the presence of peroxidase to produce a p-quinone imine dye, which was read spectrophotemetrically at 500 nm. Cholesterol concentration was then calculated against a standard curve. The entire assay was automated using a Biomek Automated Workstation.

[4] = system: MCF-7 breast adenocarcinoma cells; test: MCF-7 proliferation assay (tritiated thymidine); format: cell-based; details: Homo sapiens, MCF7; MCF-7 cells, 48 hours with drug, tritiated thymidine pulse 4 hours; read-out: ED50 (the source's name)
Experimental: MCF-7 breast adenocarcinoma cells (ATCC HTB 22) were maintained in MEM (minimal essential medium, phenol red-free, Sigma, St. Louis, Mo.) supplemented with 10% fetal bovine serum (FBS) (V/V), L-glutamine (2 mM), sodium pyruvate (1 mM), HEPES {(N-[2-hydroxyethyl]piperazine-N′-[2-ethanesulfonic acid]10 mM}, non-essential amino acids and bovine insulin (1 μg/ml) (maintenance medium). Ten days prior to assay, MCF-7 cells were switched to maintenance medium supplemented with 10% dextrancoated charcoal stripped fetal bovine serum (DCC-FBS) assay medium) in place of 10% FBS to deplete internal stores of steroids. MCF-7 cells were removed from maintenance flasks using cell dissociation medium (Ca++/Mg++ free HBSS (phenol red-free) supplemented with 10 mM HEPES and 2 mM EDTA). Cells were washed twice with assay medium and adjusted to 80,000 cells/ml. Approximately […] (8,000 cells) were added to flat-bottom microculture wells (Costar 3596) and incubated at 37° C. in a 5% CO2 humidified incubator for 48 hours to allow for cell adherence and equilibration after transfer. Serial dilutions of drugs or DMSO as a diluent control were prepared in assay medium and […] to triplicate microcultures followed by […] assay medium for a final volume of […]. […] Samples were counted by liquid scintillation. […]

[5] = system: ovariectomized (OVX) rats; test: Thirty-five day dosing regimen: bone density assay (tibia, single photon absorptiometry); format: in vivo, Sprague Dawley rats; details: oral in 20% hydroxypropyl β-cyclodextrin, daily for 35 days
Experimental: Following the General Preparation procedure described above, the rats were treated daily for 35 days (6 rats per treatment group) and sacrificed by decapitation on the 36th day. The 35 day time period was sufficient to allow maximal effect on bone density, measured as described herein. At the time of sacrifice, the uteri were removed, dissected free of extraneous tissue, and the fluid contents were expelled before determination of wet weight in order to confirm estrogen deficiency associated with complete ovariectomy. […] The uteri were then placed in 10% neutral buffered formalin to allow for subsequent histological analysis. The right tibias were excised and scanned at the distal metaphysis 1 mm from the patellar groove with single photon absorptiometry. Results of the densitometer measurements represent a calculation of bone density as a function of the bone mineral content and bone width. In accordance with the procedures outlined above, compounds of the present invention and EE2 in 20% hydroxypropyl β-cyclodextrin were orally administered to test animals.

Q: Which results are given for `COc1ccc(-c2sc3cc(OC)ccc3c2C(=O)c2ccc(OCC(=O)N3CCCCC3)cc2)cc1` [Compound 7]?
A: Uterine Weight (% inc. OVX) ([1]; dose 0.1 mg/kg): −0.5 % inc. OVX; Uterine Weight (% inc. OVX) ([1]; dose 1 mg/kg): −16.2 % inc. OVX; Uterine Weight (% inc. OVX) ([1]; dose 10 mg/kg): 8.4 % inc. OVX; Uterine EPO (Vmax) ([2]; dose 0.1 mg/kg): 5.2 Vmax; Uterine EPO (Vmax) ([2]; dose 1 mg/kg): 3.7 Vmax; Uterine EPO (Vmax) ([2]; dose 10 mg/kg): 4.7 Vmax; inhibition in vivo at 0.1 mg/kg ([3]; Rattus norvegicus, po, 96 h, OVX rats, oral, daily for 4 days, dose 0.1 mg/kg, read-out: Serum Cholesterol (% dec. OVX)): 3.4%; inhibition in vivo at 1 mg/kg ([3]; Rattus norvegicus, po, 96 h, OVX rats, oral, daily for 4 days, dose 1 mg/kg, read-out: Serum Cholesterol (% dec. OVX)): 14.6%; inhibition in vivo at 10 mg/kg ([3]; Rattus norvegicus, po, 96 h, OVX rats, oral, daily for 4 days, dose 10 mg/kg, read-out: Serum Cholesterol (% dec. OVX)): -41.9%; pEC50 [4]: < 6.00

Q: How did the “effect on uterine weight compared to ovariectomized animals (in words)” value ([1]; EE2 orally at 0.1 mg/Kg/day) turn out when `C#C[C@]1(O)CC[C@H]2[C@@H]3CCc4cc(O)ccc4[C@H]3CC[C@@]21C` [ethynyl estradiol, 17α-Ethynyl estradiol, reference compound] was run?
A: substantially greater

Q: What about the “Uterine Weight (% inc. OVX)” value ([1]; dose 0.1 mg/kg) of the same compound?
A: 235.2* % inc. OVX

Q: What about the “Uterine EPO (Vmax)” value ([2]; dose 0.1 mg/kg) of the same compound?
A: 120.0* Vmax

Q: And the “eosinophil infiltration into the uterus, by eosinophil peroxidase activity (in words)” value ([2]; ovariectomized rats)?
A: substantial, expected increase

Q: And the “effect on serum cholesterol compared to ovariectomized control animals (in words)” value ([3]; EE2 orally at 0.1 mg/Kg/day)?
A: decrease in serum cholesterol

Q: What about the “tibia density / bone loss after ovariectomy (in words)” value [5] of the same compound?
A: prevented this loss

From patent US6444688B1, “Compounds and compositions with nitrogen-containing non-basic side chains” (Eli Lilly and Company, priority 1995, dated 2002)
